Publication PMC12586182 (Frontiers in Oncology, 2025)

Experiments:
Assay in all cases: Kinase panel profiling at 1 µmol/L (mobility shift assay, Carna)
Type in all cases: biochemical
Settings in all cases: 1 µmol/L of BTK inhibitor
MSSK1 = biological target: T1, MSSK1 (Homo sapiens, UniProt Q9UPE1)
T1 construct: purchased Carna Biosciences

PDK1 = biological target: T2, PDK1 (Homo sapiens, UniProt O15530)
T2 construct: purchased Carna Biosciences
T2 sequence (O15530 1-556): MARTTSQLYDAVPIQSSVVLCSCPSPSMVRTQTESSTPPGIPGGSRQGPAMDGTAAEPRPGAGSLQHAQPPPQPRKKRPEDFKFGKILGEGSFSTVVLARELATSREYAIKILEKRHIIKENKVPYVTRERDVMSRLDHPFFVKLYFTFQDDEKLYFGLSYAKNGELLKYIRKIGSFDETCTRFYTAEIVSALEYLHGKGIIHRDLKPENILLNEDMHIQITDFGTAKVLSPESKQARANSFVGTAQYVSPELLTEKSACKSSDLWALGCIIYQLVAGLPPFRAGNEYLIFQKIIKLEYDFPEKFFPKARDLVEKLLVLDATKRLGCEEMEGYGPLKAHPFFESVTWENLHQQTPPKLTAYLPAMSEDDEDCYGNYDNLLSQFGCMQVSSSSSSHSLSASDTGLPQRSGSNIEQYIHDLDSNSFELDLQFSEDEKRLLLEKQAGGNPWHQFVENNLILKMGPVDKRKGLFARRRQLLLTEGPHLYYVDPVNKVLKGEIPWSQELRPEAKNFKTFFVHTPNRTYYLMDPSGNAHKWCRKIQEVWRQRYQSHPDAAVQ

TRKA = biological target: T3, TRKA (Homo sapiens, UniProt P04629)
T3 construct: purchased Carna Biosciences
T3 sequence (P04629 33-796): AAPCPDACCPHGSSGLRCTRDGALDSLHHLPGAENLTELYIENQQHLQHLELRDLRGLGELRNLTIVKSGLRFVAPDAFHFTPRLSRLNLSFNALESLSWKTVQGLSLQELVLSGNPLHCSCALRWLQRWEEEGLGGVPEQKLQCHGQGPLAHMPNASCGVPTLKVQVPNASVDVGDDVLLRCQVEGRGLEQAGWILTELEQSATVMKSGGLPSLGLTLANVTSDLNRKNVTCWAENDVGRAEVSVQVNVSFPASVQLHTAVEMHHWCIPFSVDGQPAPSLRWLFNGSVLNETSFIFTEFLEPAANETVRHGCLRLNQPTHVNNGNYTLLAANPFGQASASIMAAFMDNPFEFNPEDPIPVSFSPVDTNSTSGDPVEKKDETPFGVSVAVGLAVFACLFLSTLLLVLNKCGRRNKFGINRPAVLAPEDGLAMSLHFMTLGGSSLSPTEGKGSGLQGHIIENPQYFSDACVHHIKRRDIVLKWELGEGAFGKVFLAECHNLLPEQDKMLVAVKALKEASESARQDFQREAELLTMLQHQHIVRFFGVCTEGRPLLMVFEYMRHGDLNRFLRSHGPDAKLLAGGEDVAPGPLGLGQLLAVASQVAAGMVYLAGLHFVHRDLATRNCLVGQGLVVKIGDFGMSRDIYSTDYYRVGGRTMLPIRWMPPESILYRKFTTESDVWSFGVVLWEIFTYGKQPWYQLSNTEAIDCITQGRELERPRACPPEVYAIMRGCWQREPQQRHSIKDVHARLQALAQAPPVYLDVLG

PEK = biological target: T4, PEK (Homo sapiens, UniProt Q9NZJ5)
T4 construct: purchased Carna Biosciences
T4 sequence (Q9NZJ5 30-1116): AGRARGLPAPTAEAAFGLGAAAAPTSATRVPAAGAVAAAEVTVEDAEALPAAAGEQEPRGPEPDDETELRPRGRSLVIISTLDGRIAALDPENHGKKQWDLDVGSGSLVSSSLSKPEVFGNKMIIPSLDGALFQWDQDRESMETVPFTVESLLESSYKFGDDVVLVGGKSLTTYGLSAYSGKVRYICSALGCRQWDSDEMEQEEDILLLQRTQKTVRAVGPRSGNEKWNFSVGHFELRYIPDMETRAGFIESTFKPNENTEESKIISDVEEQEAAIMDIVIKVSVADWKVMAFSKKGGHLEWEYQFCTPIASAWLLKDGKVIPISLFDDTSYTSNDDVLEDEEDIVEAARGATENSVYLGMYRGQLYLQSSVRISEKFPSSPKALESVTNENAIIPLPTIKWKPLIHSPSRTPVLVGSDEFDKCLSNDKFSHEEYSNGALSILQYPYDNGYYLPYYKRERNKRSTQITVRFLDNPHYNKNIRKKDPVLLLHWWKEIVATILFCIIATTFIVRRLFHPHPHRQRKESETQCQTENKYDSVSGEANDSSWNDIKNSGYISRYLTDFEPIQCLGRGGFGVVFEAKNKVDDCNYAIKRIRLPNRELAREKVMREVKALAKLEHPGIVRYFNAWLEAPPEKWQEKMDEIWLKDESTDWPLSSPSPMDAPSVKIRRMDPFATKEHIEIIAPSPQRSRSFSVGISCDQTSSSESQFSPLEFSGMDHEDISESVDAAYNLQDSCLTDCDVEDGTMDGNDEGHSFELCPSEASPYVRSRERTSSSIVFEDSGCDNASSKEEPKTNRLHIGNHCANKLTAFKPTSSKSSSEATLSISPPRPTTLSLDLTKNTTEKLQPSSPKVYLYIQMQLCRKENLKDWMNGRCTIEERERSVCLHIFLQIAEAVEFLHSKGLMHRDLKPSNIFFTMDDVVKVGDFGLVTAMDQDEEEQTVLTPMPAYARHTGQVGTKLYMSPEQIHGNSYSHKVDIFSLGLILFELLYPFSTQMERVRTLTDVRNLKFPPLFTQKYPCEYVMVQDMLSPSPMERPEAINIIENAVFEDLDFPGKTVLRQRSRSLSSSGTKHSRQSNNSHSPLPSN

IRR = biological target: T5, IRR (Homo sapiens, UniProt P14616)
T5 construct: purchased Carna Biosciences
T5 sequence (P14616 27-1297): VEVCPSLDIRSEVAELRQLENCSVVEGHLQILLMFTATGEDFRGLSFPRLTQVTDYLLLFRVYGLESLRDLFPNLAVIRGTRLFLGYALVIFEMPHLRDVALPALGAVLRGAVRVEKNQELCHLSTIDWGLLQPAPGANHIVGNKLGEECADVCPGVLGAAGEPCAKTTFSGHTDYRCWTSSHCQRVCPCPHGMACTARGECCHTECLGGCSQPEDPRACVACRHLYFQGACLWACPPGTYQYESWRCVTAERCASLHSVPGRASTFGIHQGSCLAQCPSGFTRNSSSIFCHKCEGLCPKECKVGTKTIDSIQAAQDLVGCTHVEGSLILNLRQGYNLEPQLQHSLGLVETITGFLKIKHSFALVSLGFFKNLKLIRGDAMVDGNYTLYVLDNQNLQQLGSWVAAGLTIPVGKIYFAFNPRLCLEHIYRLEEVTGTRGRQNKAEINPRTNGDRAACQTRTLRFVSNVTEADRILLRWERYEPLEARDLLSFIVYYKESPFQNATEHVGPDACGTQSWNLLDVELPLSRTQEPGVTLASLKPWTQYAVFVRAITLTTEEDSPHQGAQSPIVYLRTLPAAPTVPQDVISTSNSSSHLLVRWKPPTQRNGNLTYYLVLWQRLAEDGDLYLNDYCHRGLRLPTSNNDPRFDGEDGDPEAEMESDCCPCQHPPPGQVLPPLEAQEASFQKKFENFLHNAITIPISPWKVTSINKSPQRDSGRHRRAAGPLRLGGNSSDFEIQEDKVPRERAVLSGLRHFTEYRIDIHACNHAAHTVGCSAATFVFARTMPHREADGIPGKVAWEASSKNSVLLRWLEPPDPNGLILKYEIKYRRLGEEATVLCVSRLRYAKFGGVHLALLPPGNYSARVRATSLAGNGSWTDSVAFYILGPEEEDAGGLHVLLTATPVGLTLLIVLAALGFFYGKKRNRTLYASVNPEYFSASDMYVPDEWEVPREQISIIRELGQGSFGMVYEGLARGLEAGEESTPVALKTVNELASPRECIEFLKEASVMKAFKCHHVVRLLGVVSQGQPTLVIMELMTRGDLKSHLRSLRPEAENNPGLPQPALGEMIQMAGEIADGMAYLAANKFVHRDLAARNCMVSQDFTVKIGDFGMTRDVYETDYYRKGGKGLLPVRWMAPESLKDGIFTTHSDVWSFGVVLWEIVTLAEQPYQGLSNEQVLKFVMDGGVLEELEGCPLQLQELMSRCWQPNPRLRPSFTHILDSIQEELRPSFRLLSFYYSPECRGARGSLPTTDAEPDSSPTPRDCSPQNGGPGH

JAK3 = biological target: T6, JAK3 (Homo sapiens, UniProt P52333)
T6 construct: purchased Carna Biosciences
T6 sequence (P52333 1-1124): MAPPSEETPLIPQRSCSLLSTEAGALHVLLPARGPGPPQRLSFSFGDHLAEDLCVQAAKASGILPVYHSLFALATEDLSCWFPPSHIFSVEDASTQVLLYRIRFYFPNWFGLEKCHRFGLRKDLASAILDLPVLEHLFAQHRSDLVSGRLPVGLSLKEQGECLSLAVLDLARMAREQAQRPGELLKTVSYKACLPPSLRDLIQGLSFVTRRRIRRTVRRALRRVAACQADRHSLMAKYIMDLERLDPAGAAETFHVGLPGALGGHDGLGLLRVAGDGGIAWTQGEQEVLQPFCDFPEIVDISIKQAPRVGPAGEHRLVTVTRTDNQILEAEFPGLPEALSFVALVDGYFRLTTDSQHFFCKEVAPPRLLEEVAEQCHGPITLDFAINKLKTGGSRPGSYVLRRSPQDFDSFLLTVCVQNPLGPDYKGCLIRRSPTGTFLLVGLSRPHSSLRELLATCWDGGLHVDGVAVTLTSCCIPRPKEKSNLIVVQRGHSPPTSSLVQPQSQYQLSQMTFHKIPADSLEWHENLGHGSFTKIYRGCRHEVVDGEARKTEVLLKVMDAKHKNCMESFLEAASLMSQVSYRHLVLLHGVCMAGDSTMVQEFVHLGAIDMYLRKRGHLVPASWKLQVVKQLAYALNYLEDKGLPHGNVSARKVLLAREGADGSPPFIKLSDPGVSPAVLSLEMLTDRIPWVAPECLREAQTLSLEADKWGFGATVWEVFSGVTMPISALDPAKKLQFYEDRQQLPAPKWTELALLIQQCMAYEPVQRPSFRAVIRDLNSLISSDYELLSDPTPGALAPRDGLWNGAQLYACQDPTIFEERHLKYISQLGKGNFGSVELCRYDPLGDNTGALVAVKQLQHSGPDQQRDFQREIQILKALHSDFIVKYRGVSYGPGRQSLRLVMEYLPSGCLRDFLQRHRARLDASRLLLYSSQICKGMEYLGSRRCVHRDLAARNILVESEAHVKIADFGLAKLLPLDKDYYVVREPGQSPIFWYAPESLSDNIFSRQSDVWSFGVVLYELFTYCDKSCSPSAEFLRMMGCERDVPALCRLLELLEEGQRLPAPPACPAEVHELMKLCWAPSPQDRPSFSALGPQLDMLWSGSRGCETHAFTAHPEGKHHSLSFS

CDK2/CycE1 = biological target: T7, CDK2/CycE1 (Homo sapiens, UniProt P24941)
T7 construct: purchased Carna Biosciences

T1 sequence (Q9UPE1 whole entry): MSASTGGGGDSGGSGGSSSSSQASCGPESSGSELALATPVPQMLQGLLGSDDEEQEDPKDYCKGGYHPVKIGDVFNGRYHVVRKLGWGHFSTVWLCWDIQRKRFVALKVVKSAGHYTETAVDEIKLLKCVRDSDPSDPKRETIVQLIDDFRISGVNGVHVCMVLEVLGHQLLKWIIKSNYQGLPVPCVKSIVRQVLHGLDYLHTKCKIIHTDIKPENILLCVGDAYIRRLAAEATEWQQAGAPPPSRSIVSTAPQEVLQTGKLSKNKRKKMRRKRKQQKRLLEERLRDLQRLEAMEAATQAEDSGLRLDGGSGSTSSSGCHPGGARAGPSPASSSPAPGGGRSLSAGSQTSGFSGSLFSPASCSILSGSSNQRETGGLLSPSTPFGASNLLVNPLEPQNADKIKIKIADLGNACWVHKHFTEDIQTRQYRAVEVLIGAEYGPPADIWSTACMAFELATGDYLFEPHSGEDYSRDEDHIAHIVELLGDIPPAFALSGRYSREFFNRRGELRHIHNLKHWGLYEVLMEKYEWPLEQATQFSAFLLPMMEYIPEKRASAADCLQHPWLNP

CC#CC(=O)N1CCC[C@H]1c1nc(-c2ccc(C(=O)Nc3ccccn3)cc2)c2c(N)nccn12 [acalabrutinib]
Percentage inhibition of kinase enzyme activity (MSSK1): -4.86%
Percentage inhibition of kinase enzyme activity (PDK1): -1.47%
Percentage inhibition of kinase enzyme activity (TRKA): 12.80%
Percentage inhibition of kinase enzyme activity (PEK): 8.39%
Percentage inhibition of kinase enzyme activity (IRR): -0.87%
Percentage inhibition of kinase enzyme activity (JAK3): -1.00%
Percentage inhibition of kinase enzyme activity (CDK2/CycE1): -4.82%

C=CC(=O)N1CCC[C@@H](n2nc(-c3ccc(Oc4ccccc4)cc3)c3c(N)ncnc32)C1 [ibrutinib]
Percentage inhibition of kinase enzyme activity (MSSK1): 1.54%
Percentage inhibition of kinase enzyme activity (PDK1): -2.01%
Percentage inhibition of kinase enzyme activity (TRKA): 59.18%
Percentage inhibition of kinase enzyme activity (PEK): 7.47%
Percentage inhibition of kinase enzyme activity (IRR): 11.54%
Percentage inhibition of kinase enzyme activity (JAK3): 90.92%
Percentage inhibition of kinase enzyme activity (CDK2/CycE1): -8.27%

O=C(c1ccc(Oc2ccccc2)cc1Cl)c1c[nH]c2ncnc(N[C@@H]3CC[C@@H](CO)OC3)c12 [nemtabrutinib]
Percentage inhibition of kinase enzyme activity (MSSK1): -0.95%
Percentage inhibition of kinase enzyme activity (PDK1): 2.54%
Percentage inhibition of kinase enzyme activity (TRKA): 99.52%
Percentage inhibition of kinase enzyme activity (PEK): 49.66%
Percentage inhibition of kinase enzyme activity (IRR): 77.13%
Percentage inhibition of kinase enzyme activity (JAK3): 97.48%
Percentage inhibition of kinase enzyme activity (CDK2/CycE1): -17.66%

COc1ccc(F)cc1C(=O)NCc1ccc(-c2nn([C@@H](C)C(F)(F)F)c(N)c2C(N)=O)cc1 [pirtobrutinib]
Percentage inhibition of kinase enzyme activity (MSSK1): -8.63%
Percentage inhibition of kinase enzyme activity (PDK1): -1.19%
Percentage inhibition of kinase enzyme activity (TRKA): 4.28%
Percentage inhibition of kinase enzyme activity (PEK): -9.35%
Percentage inhibition of kinase enzyme activity (IRR): -6.47%
Percentage inhibition of kinase enzyme activity (JAK3): -1.25%
Percentage inhibition of kinase enzyme activity (CDK2/CycE1): -41.48%

C=CC(=O)N1CCC([C@@H]2CCNc3c(C(N)=O)c(-c4ccc(Oc5ccccc5)cc4)nn32)CC1 [zanubrutinib]
Percentage inhibition of kinase enzyme activity (IRR): 34.27%
Percentage inhibition of kinase enzyme activity (JAK3): 10.83%
